What was measured:
hα2A receptor = target: T1, hα2A receptor (Homo sapiens, UniProt P08913); experiment: Radioligand binding experiment for α2A-adrenoceptor ([3H]raulwolscine, CHO cell membranes); conditions: [3H]raulwolscine binding; for IC50: read-out: h-α2A pIC50 (converted)
T1 construct: expressed in transfected cells; host or cells: CHO cells, stably transfected; membrane preparation
T1 sequence (P08913 1-465): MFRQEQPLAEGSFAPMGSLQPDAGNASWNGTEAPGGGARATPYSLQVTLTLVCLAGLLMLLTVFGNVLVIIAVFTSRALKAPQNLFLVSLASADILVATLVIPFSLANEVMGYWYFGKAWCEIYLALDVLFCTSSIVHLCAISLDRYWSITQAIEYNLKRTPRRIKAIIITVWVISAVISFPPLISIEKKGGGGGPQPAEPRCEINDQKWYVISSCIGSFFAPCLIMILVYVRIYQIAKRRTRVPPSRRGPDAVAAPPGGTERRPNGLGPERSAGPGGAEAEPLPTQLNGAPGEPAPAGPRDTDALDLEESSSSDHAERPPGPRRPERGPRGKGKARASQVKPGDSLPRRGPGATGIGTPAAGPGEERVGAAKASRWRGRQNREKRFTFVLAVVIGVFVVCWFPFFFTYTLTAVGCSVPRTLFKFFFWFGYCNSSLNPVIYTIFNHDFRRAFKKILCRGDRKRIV

5HT-Transporter = target: T2, 5HT-Transporter (Homo sapiens, UniProt P31645); experiment: Binding experiment for the 5HT-transporter ([3H]paroxetine, human platelet membranes); conditions: [3H]paroxetine 0.5 nM; for IC50: read-out: h-5HTT pIC50 (converted)
T2 construct: Human platelet membranes (Oceanix Biosciences Corporation, Hanover, Md., USA) were thawed; tissue Oceanix Biosciences Corporation, Hanover, Md., USA; host or cells: human platelet membranes
T2 sequence (P31645 whole entry): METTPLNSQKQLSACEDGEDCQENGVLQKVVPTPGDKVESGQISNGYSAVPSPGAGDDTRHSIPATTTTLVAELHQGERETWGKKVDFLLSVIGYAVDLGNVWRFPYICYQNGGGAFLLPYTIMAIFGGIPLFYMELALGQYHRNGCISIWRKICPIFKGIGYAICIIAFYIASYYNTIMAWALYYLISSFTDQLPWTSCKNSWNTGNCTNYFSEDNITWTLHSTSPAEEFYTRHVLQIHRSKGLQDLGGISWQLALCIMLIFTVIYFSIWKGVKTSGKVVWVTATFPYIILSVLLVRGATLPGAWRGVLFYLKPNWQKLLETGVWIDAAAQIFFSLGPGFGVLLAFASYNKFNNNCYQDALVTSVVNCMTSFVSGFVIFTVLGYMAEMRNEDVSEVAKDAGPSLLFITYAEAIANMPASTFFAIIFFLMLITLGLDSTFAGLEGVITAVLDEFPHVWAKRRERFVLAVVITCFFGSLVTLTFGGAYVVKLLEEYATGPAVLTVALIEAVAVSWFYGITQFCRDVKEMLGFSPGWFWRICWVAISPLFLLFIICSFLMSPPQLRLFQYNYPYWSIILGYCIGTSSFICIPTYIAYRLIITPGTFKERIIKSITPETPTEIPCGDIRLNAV
Procedure, shortened: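 Filter-bound radioactivity from human platelet membranes incubated with [3H]paroxetine and test compound (buffer Tris-HCl 50 mM, 120 mM NaCl, 5 mM KCl) was counted.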

hα2C receptor = target: T3, hα2C receptor (Homo sapiens, UniProt P18825); experiment: Radioligand binding experiment for α2C-adrenoceptor ([3H]raulwolscine, CHO cell membranes); conditions: [3H]raulwolscine binding; for IC50: read-out: h-α2C pIC50 (converted)
T3 construct: expressed in transfected cells; host or cells: CHO cells, stably transfected; membrane preparation
T3 sequence (P18825 1-462): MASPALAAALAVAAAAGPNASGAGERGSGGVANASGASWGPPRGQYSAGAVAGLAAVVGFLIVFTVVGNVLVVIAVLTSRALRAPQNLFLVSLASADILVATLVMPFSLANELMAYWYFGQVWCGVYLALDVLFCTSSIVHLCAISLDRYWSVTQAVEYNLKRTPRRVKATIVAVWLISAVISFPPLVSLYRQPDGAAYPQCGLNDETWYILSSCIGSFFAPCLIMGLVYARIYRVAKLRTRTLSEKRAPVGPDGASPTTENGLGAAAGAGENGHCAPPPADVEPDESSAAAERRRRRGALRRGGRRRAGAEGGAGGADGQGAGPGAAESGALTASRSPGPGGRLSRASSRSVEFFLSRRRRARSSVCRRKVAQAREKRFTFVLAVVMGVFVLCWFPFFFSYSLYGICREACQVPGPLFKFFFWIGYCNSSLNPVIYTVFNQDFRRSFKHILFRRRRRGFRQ

Structure (SMILES)	IC50 (hα2A receptor)	IC50 (5HT-Transporter)	IC50 (hα2C receptor)	h-α2A pIC50 (hα2A receptor)	h-5HTT pIC50 (5HT-Transporter)	h-α2C pIC50 (hα2C receptor)
C/C(=C\c1ccccc1)CN1CCC(Nc2nccn(-c3ccc(NC(=O)c4cccc(F)c4)cc3)c2=O)CC1 [1-77]	126 nM	251 nM	15.8 nM	–	–	–
C/C(=C\c1ccccc1)CN1CCC(Nc2nccn(-c3cccnc3)c2=O)CC1 [6-11]	251 nM	3980 nM	25.1 nM	–	–	–
C/C(=C\c1ccccc1)CN1CCC(Nc2nccn(CCCNC(=O)c3ccccc3)c2=O)CC1 [1-72]	126 nM	1580 nM	3.16 nM	–	–	–
C/C(=C\c1ccccc1)CN1CCN(c2nccn(Cc3ccco3)c2=O)CC1 [13-1]	50.1 nM	6310 nM	63.1 nM	–	–	–
C/C(=C\c1ccccc1)CN1CCC(Nc2nccn(-c3ccc(N4CCN(c5ccccc5)CC4)cc3)c2=O)CC1 [2-28]	100 nM	794 nM	15.8 nM	–	–	–
C/C(=C\c1ccccc1)CN1CCC(Nc2nccn(Cc3ccc(CNC(=O)C4CCCCC4)cc3)c2=O)CC1 [1-36]	158 nM	398 nM	39.8 nM	–	–	–
C/C(=C\c1ccccc1)CN1CCC(Nc2nccn(C/C=C/CN3C(=O)c4ccccc4C3=O)c2=O)CC1 [2-52]	50.1 nM	31.6 nM	2 nM	–	–	–
C/C(=C\c1ccccc1)CN1CCC(Nc2nccn(-c3cccc(CO)c3)c2=O)CC1 [3-2]	79.4 nM	5010 nM	12.6 nM	–	–	–
C/C(=C\c1ccccc1)CN1CCC(Nc2nccn(Cc3ccc(CNS(=O)(=O)c4c(C)noc4C)cc3)c2=O)CC1 [1-171]	158 nM	794 nM	20 nM	–	–	–
C/C(=C\c1ccccc1)CN1CCC(Nc2nccn(Cc3csc(C)n3)c2=O)CC1 [6-6]	126 nM	3160 nM	20 nM	–	–	–
C/C(=C\c1ccccc1)CN1CCC(Nc2nccn(-c3cccc(CNCCN4CCOCC4)c3)c2=O)CC1 [1-149]	–	–	–	7.6	5.5	8.4
C/C(=C\c1ccccc1)CN1CCN(c2nccn(C/C=C/c3ccccc3)c2=O)CC1 [12-3]	398 nM	1260 nM	126 nM	–	–	–
C/C(=C\c1ccccc1)CN1CCC(Nc2nccn(Cc3ccc4ccccc4n3)c2=O)CC1 [6-17]	79.4 nM	316 nM	15.8 nM	–	–	–
C/C(=C\c1ccccc1)CN1CCC(Nc2nccn(CC(=O)Nc3ccccc3)c2=O)CC1 [1-40]	50.1 nM	1000 nM	3.16 nM	–	–	–
C/C(=C\c1ccccc1)CN1CCC(Nc2nccn(CC(=O)NCCN3CCOCC3)c2=O)CC1 [1-148]	251 nM	1260 nM	7.94 nM	–	–	–
C/C(=C\c1ccccc1)CN1CCC(Nc2nccn(Cc3ccc(C#N)cc3)c2=O)CC1 [5-20]	501 nM	5010 nM	100 nM	–	–	–
C/C(=C\c1ccccc1)CN1CCC(Nc2nccn(CCCNS(=O)(=O)c3ccccc3)c2=O)CC1 [1-158]	100 nM	158 nM	6.31 nM	–	–	–
C/C(=C\c1ccccc1)CN1CCC(Nc2nccn(-c3ccc(N)cc3)c2=O)CC1 [1-5]	100 nM	2000 nM	6.31 nM	–	–	–
C/C(=C\c1ccccc1)CN1CCC(Nc2nccn(C/C=C/c3ccccc3)c2=O)CC1 [5-28]	158 nM	501 nM	63.1 nM	–	–	–
C/C(=C\c1ccccc1)CN1CCC(Nc2nccn(CC(=O)c3ccc4c(c3)NC(=O)CO4)c2=O)CC1 [6-15]	15.8 nM	1000 nM	20 nM	–	–	–
C/C(=C\c1ccccc1)CN1CCC(Nc2nccn(CC(=O)NCC3CCCO3)c2=O)CC1 (stereo not drawn) [1-144]	158 nM	3160 nM	6.31 nM	–	–	–
COCCCn1ccnc(NC2CCN(C/C(C)=C/c3ccccc3)CC2)c1=O [3-6]	631 nM	3980 nM	63.1 nM	–	–	–

Structure (SMILES)	IC50 (hα2A receptor)	IC50 (5HT-Transporter)	IC50 (hα2C receptor)	h-α2A pIC50 (hα2A receptor)	h-5HTT pIC50 (5HT-Transporter)	h-α2C pIC50 (hα2C receptor)
C/C(=C\c1ccccc1)CN1CCC(Nc2nccn(Cc3ccncc3)c2=O)CC1 [6-14]	158 nM	2510 nM	39.8 nM	–	–	–
C/C(=C\c1ccccc1)CN1CCC(Nc2nccn(Cc3ccc(CNS(=O)(=O)/C=C/c4ccccc4)cc3)c2=O)CC1 [1-167]	200 nM	631 nM	39.8 nM	–	–	–
C/C(=C\c1ccccc1)CN1CCC(Nc2nccn(-c3ccc(C(=O)N4CCOCC4)cc3)c2=O)CC1 [2-46]	31.6 nM	794 nM	3.98 nM	–	–	–
CC(C)(C)OC(=O)NCc1ccc(Cn2ccnc(NC3CCN(C/C=C/c4ccccc4)CC3)c2=O)cc1 [16-5]	794 nM	1260 nM	398 nM	–	–	–
C/C(=C\c1ccccc1)CN1CCC(Nc2nccn(-c3ccc(Nc4ccc(F)cc4)cc3)c2=O)CC1 [1-44]	100 nM	794 nM	5.01 nM	–	–	–
COc1cccc(Cn2ccnc(NC3CCN(C/C(C)=C/c4ccccc4)CC3)c2=O)c1 [3-10]	79.4 nM	794 nM	31.6 nM	–	–	–
C/C(=C\c1ccccc1)CN1CCC(Nc2nccn(Cc3ccccc3C)c2=O)CC1 [5-10]	79.4 nM	398 nM	25.1 nM	–	–	–
CC(=O)c1ccc(-n2ccnc(NC3CCN(C/C(C)=C/c4ccccc4)CC3)c2=O)cc1 [5-7]	25.1 nM	631 nM	10 nM	–	–	–
C/C(=C\c1ccccc1)CN1CCC(Nc2nccn(-c3ccc(F)cc3)c2=O)CC1 [5-2]	31.6 nM	398 nM	10 nM	–	–	–
C/C(=C\c1ccccc1)CN1CCC(N(C)c2nccn(CCCO)c2=O)CC1 [15-4]	63.1 nM	2510 nM	39.8 nM	–	–	–
C/C(=C\c1ccccc1)CN1CCC(Nc2nccn(CC(=O)N(CCN3CCCC3)Cc3ccccc3)c2=O)CC1 [1-135]	12.6 nM	794 nM	0.794 nM	–	–	–
C=CCN1CCN(C(=O)c2ccc(-n3ccnc(NC4CCN(C/C(C)=C/c5ccccc5)CC4)c3=O)cc2)CC1 [2-25]	126 nM	501 nM	7.94 nM	–	–	–
C/C(=C\c1ccccc1)CN1CCC(Nc2nccn(Cc3cccc(Br)c3)c2=O)CC1 [5-15]	79.4 nM	398 nM	25.1 nM	–	–	–
C/C(=C\c1ccccc1)CN1CCC(Nc2nccn(Cc3ccccc3-c3ccccc3)c2=O)CC1 [5-31]	100 nM	200 nM	20 nM	–	–	–
O=c1c(NC2CCN(C/C=C/c3ccccc3)CC2)nccn1Cc1ccc2ccccc2c1 [16-18]	251 nM	398 nM	251 nM	–	–	–
C/C(=C\c1ccccc1)CN1CCC(Nc2nccn(CC(=O)N3CCOCC3)c2=O)CC1 [2-41]	126 nM	3980 nM	12.6 nM	–	–	–
C/C(=C\c1ccccc1)CN1CCC(Nc2nccn(CC#CCN3C(=O)c4ccccc4C3=O)c2=O)CC1 [2-54]	126 nM	50.1 nM	6.31 nM	–	–	–
C/C(=C\c1ccccc1)CN1CCC(Nc2nccn(CCCNC(=O)CC3CCCC3)c2=O)CC1 [1-33]	200 nM	794 nM	12.6 nM	–	–	–
CCCN(C)C(=O)Cn1ccnc(NC2CCN(C/C(C)=C/c3ccccc3)CC2)c1=O [1-19]	126 nM	1580 nM	10 nM	–	–	–
C/C(=C\c1ccccc1)CN1CCC(Nc2nccn(Cc3ccc(CNC(=O)c4ccncc4)cc3)c2=O)CC1 [1-154]	126 nM	398 nM	39.8 nM	–	–	–
C/C(=C\c1ccccc1)CN1CCN(c2nccn(CC3CCCCC3)c2=O)CC1 [14-3]	398 nM	7940 nM	158 nM	–	–	–
